Source: US4504464A, “2,3-Dialkoxypropyl glyceryl ether and its preparation process as well as cosmetic composition containing same” (Kao Soap Co., Ltd., priority 1981, dated 1985)

Assays:
Viscosity (27° C.) = assay type: physicochemical
Protocol: (§1) Physical and chemical properties of the compound prepared in Example 1, which compound relates to the present invention, and an example of its application for cosmetic compositions will be described below.
(§2) Viscosity Water-solubility (25° )

[1] = Water-solubility (25° C.); assay type: physicochemical; details: for Water-solubility (25° C.) 10%: 10% content of the diglycerin dialkyl ether; for Water-solubility (25° C.) 50%: 50% content of the diglycerin dialkyl ether
Protocol: as §1, §2
* Content (%) of the diglycerin dialkyl ether according to this invention
These figures will have the same significance in subsequent examples.

Compound	Viscosity (27° C.) (Viscosity (27° C.)) [cp]	Water-solubility (25° C.) 10% [1]	Water-solubility (25° C.) 50% [1]
2-methoxy-3-isostearoxypropyl glyceryl ether [Example 3]	382		
2-butoxy-3-isostearoxypropyl glyceryl ether [Example 4]	240		
CCCCCCCCCCCCOCC(COCC(O)CO)OC (stereo not shown) [Example 2, 2-methoxy-3-dodecyloxypropyl glyceryl ether]	504	Dissolved	
2-octoxy-3-isostearoxypropyl glyceryl ether [Example 5]	280	Undissolved	Undissolved
CCCCCCCCOCC(COCC(O)CO)OC (stereo not shown) [Example 1, 2-methoxy-3-octoxypropyl glyceryl ether]	423	Dissolved	Dissolved
